Measurements published in PMC8857470, “Molecular insights into the maturation of phosphodiesterase 6 by the specialized chaperone complex of HSP90 with AIPL1” (The Journal of Biological Chemistry, 2022).

Target: T1, AIPL1 (full-length mouse AIPL1) (Mus musculus, UniProt Q924K1)
T1 construct: full-length (aa 1-328), His6-tagged from pET15b, expressed in E. coli BL21(DE3), purified by Ni-NTA, Mono Q and SEC; prenyl site in the FKBP domain
T1 sequence (Q924K1 1-328): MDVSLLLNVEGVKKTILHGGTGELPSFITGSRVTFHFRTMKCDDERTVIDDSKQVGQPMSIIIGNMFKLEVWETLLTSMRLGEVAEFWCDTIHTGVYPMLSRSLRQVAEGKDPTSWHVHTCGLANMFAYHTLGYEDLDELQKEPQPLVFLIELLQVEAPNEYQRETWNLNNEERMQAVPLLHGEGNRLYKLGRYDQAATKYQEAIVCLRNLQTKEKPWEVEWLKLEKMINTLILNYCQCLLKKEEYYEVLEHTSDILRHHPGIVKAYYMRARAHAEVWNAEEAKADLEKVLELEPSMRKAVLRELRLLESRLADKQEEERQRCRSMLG
Experiment: fluorescence titration, ex […] nm, em […] nm, fit with ligand depletion
Format: binding

Kd: 700 ± 100 nM
Compound: CC(C)=CCC/C(C)=C/CC/C(C)=C/CSC[C@H](NC(=O)CCCCCNC(=O)Cc1c(C)c2ccc(N)cc2oc1=O)C(=O)O [farnesyl-Cys-AMCA]
